Reference: patent US4100276A, “Fusidic acid derivatives” (priority 1975, dated 1978)
Converted amounts (≈) assume the structure as drawn. “Also recorded” adds a separate entry of the source. Counter-ions that a name gives are not always drawn. Like-named read-outs stand apart in the source and are kept apart here.

How the values were obtained:
Staphylococcus aureus [1] = assay: In vitro effect of combination with dihydro-fusidic acid, viable counts (Example 46); assay type: cell-based; conditions: tubes a, b 10 μg/ml, tube c 5 + 5 μg/ml
Description: In vitro-effect of the combination of dihydro-fusidic acid and 3α,11α-dihydroxy-16β-phenylthio-fusida-13(17),24-dien-21- oic acid
To three tubes containing NIH broth was added:
a. The sodium salt of dihydro-fusidic acid (10 μg/ml).
b. The sodium salt of 3α,11α-dihydroxy-16-phenylthiofusida-13(17),24-dien-21-oic acid (10 μg/ml).
c. A mixture of the sodium salts of dihydro-fusidic acid (5 μg/ml) and 3α,11α-dihydroxy-16-phenylthiofusida-13(17),24-dien-21-oic acid (5 μg/ml).
The tubes were inoculated with Staphylococcus aureus to give 5.2 × 10^5 organisms per ml, incubated at 37° C for 96 hours, and the viable counts were determined.
(§1) A fourth tube was treated similarly without addition of any of the antibiotics and used as a control: […]

[2] = test system: Streptococcus sp. Leo EG2; assay: In vitro activity, concentration required for 50% inhibition (Table A); assay type: cell-based; conditions: Streptococcus, read-out: Concentration required for 50% inhibition (IC50)
[3] = test system: Staphylococcus aureus Leo CC178B; assay: as above; assay type: cell-based; conditions: Staphylococcus aureus, LEOCC178B, read-out: Concentration required for 50% inhibition (IC50)
Streptococcus pyogenes = assay: In vitro bactericidal effect, viable counts (Example 44); assay type: cell-based; conditions: 10 μg/ml, NIH broth, 37° C; for Viable count after 0 hr: 0 hr (inoculum)
Description: In vitro bactericidal effect of 3α,11α-dihydroxy-16β-phenylthiofusida-13(17),24-dien-21-oic acid compared to that of fusidic acid […]
To two tubes containing NIH broth was added: a. The sodium salt of 3α,11α-dihydroxy-16β-phenylthiofusida-13(17),24-dien-21-oic acid (10 μg/ml) […]
b. The sodium salt of fusidic acid (10 μg/ml)
The tubes were inoculated with Streptococcus pyogenes to give 9.2×10^4 organisms per ml, incubated at 37° C, and the viable counts were determined at intervals.
A third tube was treated similarly without addition of any of the antibiotics and used as a control: […]

Staph. aureus Leo CJ145 = assay: In vitro activity, concentration required for 50% inhibition (Table A); assay type: cell-based; conditions: Staphylococcus aureus, LEOCJ145, read-out: Concentration required for 50% inhibition (IC50)
Corynebact. acnes Leo FN = assay: as above; assay type: cell-based, Corynebacterium acnes; conditions: Cutibacterium acnes, read-out: Concentration required for 50% inhibition (IC50)
[4] = test system: Streptococcus pyogenes Leo EC; assay: as above; assay type: cell-based; conditions: Streptococcus pyogenes, read-out: Concentration required for 50% inhibition (IC50)
[5] = test system: Bacteroides fragilis, Leo JA2; assay: as above; assay type: cell-based; conditions: Bacteroides fragilis, LEOJA2, read-out: Concentration required for 50% inhibition (IC50)
[6] = test system: Staph. aureus, Leo CC178H2 (fusidic acid resistant strain); assay: as above; assay type: cell-based; conditions: Staphylococcus aureus, read-out: Concentration required for 50% inhibition (IC50)
[7] = test system: Staph. aureus (Leo CC 178B), fusidic acid sensitive strain; assay: microbe, parasite or virus in culture; assay type: cell-based; conditions: Staphylococcus aureus, isolates from "Comp. of Ex 8 cult." (48 hours pretreatment)
[8] = test system: Staph. aureus (Leo CC 178B), fusidic acid sensitive strain; assay: microbe, parasite or virus in culture; assay type: cell-based; conditions: for IC50: Staphylococcus aureus
Description: Prevention of development of resistance against fusidic acid as a result of treating Staph. aureus with the sodium salt of 3α,11α-dihydroxy-16β-isopropylthiofusida-13(17),24-dien-21-oic acid
After a 48 hours pretreatment of a fusidic acid sensitive strain of Staph. aureus (Leo CC 178B) with subinhibitory concentrations of fusidic acid or the compound of Example 9. The sensitivities of the pretreated cultures and of the original strain against the two compounds were determined. The determinations were made by serial dilutions in NIH-broth, inoculum size 2.10^5 organisms/ml, and read as IC50 after 18 and 48 hours.

Staphylococcus aureus [9] = assay: In vitro effect of combination with fusidic acid, viable counts (Example 45); assay type: cell-based; conditions: 24 hours; for Viable count: 37° C, fusidic acid 1 μg/ml (tube a), isopropylthio compound 3 μg/ml (tube b), mixture 1 + 3 μg/ml (tube c), inoculum 1.4×10^4; for Resistance of surviving organisms to the compound / development of resistance: fusidic acid 1 μg/ml, isopropylthio compound 3 μg/ml, mixture 1 + 3 μg/ml
Description: In vitro-effect of the combination of fusidic acid and 3α,11α-dihydroxy-16β-isopropylthio-fusida-13(17),24-dien- 21-oic acid
To 3 tubes containing NIH broth was added:
a. The sodium salt of fusidic acid (1 μg/ml).
b. The sodium salt of 3α,11α-dihydroxy-16-isopropylthiofusida-13(17),24-dien-21-oic acid (3 μg/ml).
c. A mixture of the sodium salts of fusidic acid (1 μg/ml) and 3α,11α-dihydroxy-16-isopropylthiofusida-13(17),24-dien-21-oic acid (3 μg/ml).
The tubes were inoculated with Staphylococcus aureus to give 1.4×10^4 organisms per ml, incubated at 37° C for 24 hours, and the viable counts were determined.
as §1

bacteria = assay: In vitro investigations of antibacterial activity (general statements); assay type: cell-based
[10] = Absorption from the gastro-intestinal tract; conditions: in vivo
[11] = 18 h, isolates from control culture, inoculum 2.10^5 organisms/ml, NIH-broth, read-out: IC50, 18 hours
[12] = 48 h, isolates from control culture, inoculum 2.10^5 organisms/ml, NIH-broth, read-out: IC50, 48 hours
[13] = isolates from fusidic acid pretreated culture (48 hours pretreatment), read-out: IC50, 18 hours
[14] = isolates from fusidic acid pretreated culture (48 hours pretreatment), read-out: IC50, 48 hours

Structure (SMILES)	IC50 [2]	IC50 [3]	Viable count after 0 hr (Streptococcus pyogenes)	Viable count after 1.5 hr (Streptococcus pyogenes; inoculum 9.2×10^4)	Viable count after 4 hr (Streptococcus pyogenes; inoculum 9.2×10^4)	IC50 (Staph. aureus Leo CJ145)	IC50 (Corynebact. acnes Leo FN)	IC50 [4]	IC50 [5]	IC50 [6]	IC50 ([7]; read-out: IC50, 18 hours)	IC50 ([7]; read-out: IC50, 48 hours)	IC50 [8, 11]	IC50 [8, 12]	IC50 [8, 13]	IC50 [8, 14]	Viable count (Staphylococcus aureus [9])	Resistance of surviving organisms to the compound / development of resistance (Staphylococcus aureus [9])	further results
CC(C)=CCCC(C(=O)O)C1=C2C[C@@H](O)[C@H]3[C@@]4(C)CC[C@@H](O)[C@@H](C)[C@@H]4CC[C@]3(C)[C@@]2(C)C[C@@H]1Sc1ccccc1 (stereo partly drawn) [Example 1, 3α,11α-Dihydroxy-16β -phenylthiofusida-13(17), 24-dien-21-oic acid sodium salt]	1.6 µg/mL	1.6 µg/mL	9.2 × 10^4 organisms per ml	1.4 × 10^4 organisms per ml	5.7 × 10^2 organisms per ml	3.2 µg/mL	0.5 µg/mL	0.5 µg/mL	20 µg/mL	1.6 µg/mL	–	–	–	–	–	–	–	–	Viable counts after 6 1/2 hours (Staphylococcus aureus [1]; 37° C, inoculum 5.2 × 10^5): 1.1 × 10^4 organisms per ml; Viable counts after 2 hours (Staphylococcus aureus [1]; 37° C, inoculum 5.2 × 10^5): 5.2 × 10^4 organisms per ml; Viable counts after 24 hours (Staphylococcus aureus [1]; 37° C, inoculum 5.2 × 10^5): 3.1 × 10^6 organisms per ml; Resistance of surviving organisms to the compound / development of resistance (Staphylococcus aureus [1]; 96 hours): resistant to 3α,11α-dihydroxy-16β-phenylthio-fusida-13(17),24-dien-21- oic acid
CC(C)=CCCC(C(=O)O)C1=C2C[C@@H](O)[C@H]3[C@@]4(C)CC[C@@H](O)[C@@H](C)[C@@H]4CC[C@]3(C)[C@@]2(C)C[C@@H]1SC(C)C (stereo partly drawn) [Example 9, 3α,11α-dihydroxy-16β-isopropylthiofusida-13(17), 24-dien-21-oic acid sodium salt]	–	–	–	–	–	–	–	–	–	–	5 µg/mL	16 µg/mL	2 µg/mL	5 µg/mL	1.6 µg/mL	5 µg/mL	1.5 × 10^6 organisms per ml	resistant to 3α,11α-dihydroxy-16β-isopropylthio-fusida-13(17),24-dien- 21-oic acid	Emergence of resistance against fusidic acid / change of sensitivity after pretreatment ([8]; 48 hours pretreatment with subinhibitory concentrations, sodium salt): Only a slight decrease of the sensitivity; also recorded: totally prohibited the emergence of resistance against fusidic acid
CC(=O)O[C@H]1C[C@@]2(C)[C@@H](C[C@@H](O)[C@H]3[C@@]4(C)CC[C@@H](O)[C@@H](C)[C@@H]4CC[C@@]32C)/C1=C(\CCC=C(C)C)C(=O)O [Fusidic acid]	1.6 µg/mL (≈ 3.1 µM)	0.025 µg/mL (≈ 0.0484 µM)	–	–	–	16 µg/mL (≈ 31 µM)	0.2 µg/mL (≈ 0.387 µM)	0.63 µg/mL (≈ 1.22 µM)	1.6 µg/mL (≈ 3.1 µM)	32 µg/mL (≈ 61.9 µM)	0.016 µg/mL (≈ 0.031 µM)	0.02 µg/mL (≈ 0.0387 µM)	0.016 µg/mL (≈ 0.031 µM)	1 µg/mL (≈ 1.94 µM)	7.9 µg/mL (≈ 15.3 µM)	50 µg/mL (≈ 96.8 µM)	–	resistant to fusidic acid	Antibacterial effect, bactericidal/bacteriostatic (in words) (bacteria): solely bacteriostatic; Absorption from the gastro-intestinal tract (in words) [10]: absorbed efficiently from the gastro-intestinal tract
CC(=O)O[C@H]1C[C@@]2(C)[C@@H](C[C@@H](O)[C@H]3[C@@]4(C)CC[C@@H](O)[C@@H](C)[C@@H]4CC[C@@]32C)/C1=C(\CCC=C(C)C)C(=O)O [sodium salt of fusidic acid]	–	–	9.2 × 10^4 organisms per ml	1.2 × 10^5 organisms per ml	1.5 × 10^5 organisms per ml	–	–	–	–	–	–	–	–	–	–	–	1.8 × 10^8 organisms per ml	–	Viable count after 7 hr (Streptococcus pyogenes; inoculum 9.2×10^4): 1.3 × 10^5 organisms per ml
